Data reported in BindingDB's records for doi:10.7270/Q25B01BH (D3R/Abbott, 2015).
pKd: −log10 of the molar value.

biological target: Cyclin-dependent kinase 2 (Homo sapiens, UniProt P24941); assay: OctetRed_Method1
Text: OctetRed_Method1

SMILES | pKd
COc1ccc(NC(=O)CSc2nnnn2C)cc1 [CS53] | < 4.00
COc1ccc(NC(=O)CCSc2nnc3scc(-c4ccc(C)cc4)n23)cc1 [CS37] | < 4.00
COC(=O)c1ccccc1NC(=O)CSc1nnc(-c2ccc(OC)cc2)n1C [CS72] | < 4.00
COc1cccc(NC(=O)CSc2nnnn2C)c1 [CS27] | < 4.00
COC(=O)c1ccc(NC(=O)CSc2nnnn2-c2ccccc2OC)cc1 [CS77] | < 4.00
CCOc1ccc2nc(SCC(=O)Nc3c(C)n(C)n(-c4ccccc4)c3=O)sc2c1 [CS49] | < 4.00
O=C(Cn1c(NCCO)nc2ccccc21)c1cccc([N+](=O)[O-])c1 [CS80] | < 4.00
COc1ccc2c(C)nc(Nc3nc(C)cc(O)n3)nc2c1 | < 4.00
CC1CCN(S(=O)(=O)c2ccc(Cl)c(C(=O)Nc3ccc(C(=O)O)cc3)c2)CC1 [CS34] | < 4.00
CN1CCN(C(=O)c2ccccc2N(Cc2ccccc2)S(C)(=O)=O)CC1 [CS76] | < 4.00
CCc1nnc(NS(=O)(=O)c2ccc(NC(=O)c3ccc(F)cc3)cc2)s1 [CS31] | < 4.00
CC(=O)Nc1cccc(-c2nnc(SCC(=O)Nc3ccc(C(C)=O)cc3)n2C)c1 [CS71] | < 4.00
COc1ccc(C(=O)CSc2nnc(-c3ccc(OC)c(OC)c3)n2-c2ccccc2)cc1 [CS67] | < 4.00
O=C(O)c1cccc(CSc2nnc(-c3ccncc3)o2)c1 [3-({[5-(pyridin-4-yl)-1,3,4-oxadiazol-2-yl]sulfanyl}methyl)benzoic acid] | < 4.00
COc1cccc(-n2nnnc2SCC(=O)Nc2c(C)cc(C)cc2C)c1 [CS81] | < 4.00
Cn1c(COc2cccc3cccnc23)nnc1SCC(N)=O [CS64] | < 4.00
COc1ccc(-c2nnc(SCC(=O)Nc3c(F)cc(F)cc3Br)n2C)cc1 [CS78] | < 4.00

SMILES | pKd
CN1CCN(C(=O)CN(c2cc(C(F)(F)F)ccc2Cl)S(=O)(=O)c2ccccc2)CC1 [CS65] | < 4.00
CCn1c(SCC(=O)Nc2cccc(C(C)=O)c2)nnc1-c1ccncc1 [CS66] | < 4.00
COc1ccc(-n2c(SCC(N)=O)nnc2-c2cccs2)cc1 [CS73] | < 4.00
COC(=O)c1ccc(NC(=O)CSc2nnc(-c3ccc(NC(C)=O)cc3)n2C)cc1 [CS59] | < 4.00
CS(=O)(=O)c1ccc(NC(=O)CSc2nnc(-c3ccccc3F)n2-c2ccccc2)cc1 [CS74] | < 4.00
O=S(=O)(NCCSc1ccccn1)c1ccc(Br)cc1 [CS33] | < 4.00
COc1ccc(CC(NC(C)=O)c2ccc3cccnc3c2O)cc1OC (centres undefined) [CS32] | < 4.00
O=C(COc1ccccc1[N+](=O)[O-])Nc1ccccc1N1CCOCC1 [CS46] | < 4.00
Cc1c(NC(=O)C2CCCN2S(=O)(=O)c2ccccc2)c(=O)n(-c2ccccc2)n1C (centres undefined) [CS68] | < 4.00
COc1ccc(OCC(=O)Nc2cc(-c3nn4c(C)nnc4s3)ccc2C)cc1 [CS36] | < 4.00
O=C(CSc1nnc(-c2ccc([N+](=O)[O-])cc2)n1-c1ccccc1)N1CCOCC1 [CS58] | < 4.00
COc1cc(OC)c(NC(=O)CSc2nnc(-c3ccccc3)n2C)cc1Cl [CS47] | < 4.00
NC(=O)c1ccc(NCCCN2CCOCC2)c([N+](=O)[O-])c1 [CS69] | < 4.00
COC(=O)c1ccccc1NC(=O)CSc1nnc(C23C[C@H]4C[C@@H](C2)C[C@@H](C3)C4)n1C [CS38] | < 4.00
COc1ccc(NC(=O)CSc2nnc(-c3ccncc3)[nH]2)cc1 [CS41] | < 4.00
CC(=O)Nc1ccc(S(=O)(=O)Nc2c(C)nn(-c3ccccc3)c2C)cc1 [CS70] | < 4.00
CCOc1ccc(C(C)=O)cc1Cc1c(O)nc(N)nc1O [CS55] | < 4.00

The next lines start with the values.

pKd | SMILES
< 4.00 | CS(=O)(=O)N(CC(=O)Nc1ccccc1C(=O)N1CCOCC1)c1ccc(Cl)cc1 [CS160]
< 4.00 | CCOC(=O)c1cnc(Nc2nc3ccccc3o2)nc1CN1CCN(c2ccccc2)CC1 [CS196]
< 4.00 | CSc1ccc(S(=O)(=O)NCc2ccccn2)cc1 [CS230]
< 4.00 | COc1ccccc1NC(=O)CSc1nncn1C [CS198]
< 4.00 | CN(CC(=O)Nc1ccccc1C(=O)N1CCCC1)CS(=O)(=O)c1ccc(Br)cc1 [CS130]
< 4.00 | COc1cc(NC(=O)CSc2nncn2C)cc(OC)c1OC [CS202]
< 4.00 | COC(=O)c1ccccc1Oc1nc(NC(C)C)nc(NC(C)C)n1 [CS92]
< 4.00 | O=C(Cn1cnc([N+](=O)[O-])n1)Nc1ccc(N2CCOCC2)c(Cl)c1 [CS200]
< 4.00 | CCn1c(SCC(=O)Nc2ccccc2OC)nnc1-c1ccco1 [CS119]
< 4.00 | O=C(CSc1nnc(-c2ccccc2O)n1-c1ccccc1)Nc1cccc(C(=O)O)c1 [CS166]
< 4.00 | O=C(Nc1ccc(S(=O)(=O)Nc2ncccn2)cc1)c1c(Cl)cccc1Cl [CS93]
< 4.00 | COc1cc([N+](=O)[O-])ccc1NC(=O)CN1CCOCC1 [CS142]
< 4.00 | Cc1cc(C)c(S(=O)(=O)NCc2ccccn2)cc1C [CS105]
< 4.00 | O=C1c2ccccc2C(=O)N1CCCc1nc(-c2cccc([N+](=O)[O-])c2)no1 [CS148]
< 4.00 | CCn1c(SCC(=O)Nc2cccc(OC)c2)nnc1-c1ccncc1 [CS95]
< 4.00 | O=C(Cn1nc(-c2cccc([N+](=O)[O-])c2)c2ccccc2c1=O)NCC1CCCO1 (centres undefined) [CS102]
< 4.00 | O=C(Cc1ccccc1[N+](=O)[O-])Nc1ccccc1C(=O)N1CCOCC1 [CS209]
< 4.00 | COc1ccc2[nH]cc(CCNC(=O)Nc3ccc(Cl)c(Cl)c3)c2c1 [CS236]
< 4.00 | Cc1ccnc(NS(=O)(=O)c2ccc(NC(=O)c3cncc(Br)c3)cc2)n1 [CS165]
< 4.00 | O=S(=O)(NCc1ccccn1)c1cc(Cl)c(Cl)cc1Cl [CS104]
< 4.00 | COc1cc(OC)c(NC(=O)CSc2nnc(-c3ccncc3)n2-c2ccccc2)cc1Cl [CS109]
< 4.00 | Cc1nc2ncnn2c(O)c1NS(=O)(=O)c1ccc(Br)cc1 [CS237]
< 4.00 | COc1ccc(C(=O)C(C)Oc2cccc(NC(=O)c3cccc([N+](=O)O)c3)c2)cc1 (centres undefined) [CS112]
< 4.00 | Cc1c(NS(=O)(=O)c2cccc3nonc23)c(=O)n(-c2ccccc2)n1C [CS150]
< 4.00 | CN1CCN(C(=O)CN(C)S(=O)(=O)c2ccc3ccccc3c2)CC1 [CS173]

pKd | SMILES
< 4.00 | COc1ccccc1NC(=O)CSc1nnc(-c2ccc(F)cc2)n1C [CS98]
< 4.00 | Cc1cc(C)c(S(=O)(=O)N(C)CC(=O)N2CCC(C(N)=O)CC2)c(C)c1 [CS152]
< 4.00 | O=C(CC1OCCN(Cc2ccccc2)C1=O)Nc1ccc2c(c1)OCCO2 (centres undefined) [CS208]
< 4.00 | COc1ccccc1NC(=O)CSc1nnc(-c2ccc([N+](=O)[O-])cc2)n1-c1ccccc1 [CS82]
< 4.00 | COc1ccccc1NC(=O)CSc1nnc(-c2ccccc2Cl)n1-c1ccccc1 [CS222]
< 4.00 | CCn1c(SCC(=O)Nc2ccccc2OC)nnc1-c1c[nH]c2ccccc12 [CS213]
< 4.00 | Cn1nc([N+](=O)[O-])nc1Oc1ccccc1C(=O)N1CCOCC1 [CS231]
< 4.00 | COc1ccc([N+](=O)[O-])cc1NC(=O)C(C)Oc1ccccc1C (centres undefined) [CS177]
< 4.00 | Cc1nonc1OCCNc1cc(N2CCOCC2)ccc1[N+](=O)[O-] [CS204]
< 4.00 | COc1ccc(NC(=O)CN2CCOCC2)c([N+](=O)[O-])c1 [CS189]
< 4.00 | Cc1cccc(NS(=O)(=O)c2cc(C(=O)Nc3ccccc3C(=O)N3CCOCC3)ccc2Cl)c1 [CS232]
< 4.00 | COc1ccccc1-n1nnnc1SCC(=O)Nc1ccccc1SC [CS197]
< 4.00 | Cn1c(Cc2ccccc2)nnc1Sc1ccc([N+](=O)[O-])cc1C(=O)N1CCOCC1 [CS188]
< 4.00 | Cc1ccc(NS(=O)(=O)c2cc(C(=O)Nc3ccccc3C(=O)N3CCOCC3)ccc2Cl)c(C)c1 [CS238]
< 4.00 | O=S(=O)(NCc1ccccn1)c1ccc(Cl)c(Cl)c1Cl [CS116]
< 4.00 | CC(Sc1nc2ccccc2[nH]1)C(=O)Nc1ccc(S(N)(=O)=O)cc1 (centres undefined) [CS140]
< 4.00 | COc1cc(OC)c(NC(=O)CSc2nnc(-c3ccncc3)n2C)cc1Cl [CS96]
< 4.00 | COc1ccc(NC(=O)c2ccco2)cc1NC(=O)c1cccnc1 [CS85]
< 4.00 | Cc1ccc(S(=O)(=O)Nc2ccccc2CNc2cnc3ccccc3c2)cc1 [CS100]
< 4.00 | O=C(CSc1nnc(-c2ccncc2)o1)Nc1ccc(F)cc1 [CS234]
< 4.00 | COc1cc(-c2nnc(SCC(N)=O)n2C)cc(OC)c1OC [CS175]
< 4.00 | O=C(Cn1ccc([N+](=O)[O-])n1)N1CCCc2ccccc21 [CS154]
< 4.00 | COc1ccccc1CNC(=O)CSc1nnnn1-c1c(C)cccc1C [CS184]
< 4.00 | CCc1ccccc1NC(=O)CSc1nnc(-c2cccc(OC)c2)n1C [CS169]
< 4.00 | CC(=O)c1cccc(NC(=O)CSc2nnc(-c3cc4ccccc4cc3O)n2C)c1 [CS110]
